Data from patent US12539292B2, “BRM targeting compounds and associated methods of use” (Arvinas Operations, Inc., priority 2018, dated 2026).
Where two headings read alike, the source gives them in different places.

Molecular target: T1, BRM (Homo sapiens, UniProt P51531)
T1 construct: In-Cell Western Screen of BRM Degradation in SW1573 Cells; endogenous in cells; host or cells: SW1573
Assay: In-cell Western screen of BRM degradation in SW1573 cells (Dmax and DC50)
Type: cell-based
Conditions: BRM degradation, SW1573 cells
Method: In-Cell Western Screen of BRM Degradation in SW1573 Cells
To assess BRM degradation (Dmax and DC50), cells were seeded at 8000/well in 96-well black/clear-bottom plates in 180 μL DMEM growth media (containing 1% pen-strep, 1% HEPES and 10% FBS) per well. Plates were incubated overnight to allow adhesion. The next morning cells were treated by adding 20 μL of 10× compound (1% DMSO) to appropriate wells and returned to incubator for overnight (18-20 hours). The final DMSO concentration was 0.1%.
For processing, the plates were removed from incubator, the media was removed, and immediately 200 μL of cold (4° C.) DPBS was added to all wells. DPBS was then removed, and 50 μL of 4% paraformaldehyde (PFA) in DPBS (4° C.) was added to all wells, and the plates were incubated at room temperature for 20 minutes. PFA was then removed, and 200 μL of TBS-T containing 0.5% Triton X-100 was added to all wells, and the plates were incubated at room temperature for 30 minutes. TBS-T containing 0.5% Triton X-100 was then removed, and 50 μL of Li-Cor blocking solution was added, and the plates were incubated at room temperature for a minimum of one hour.
The next day plates were washed three times with TBS-T, 200 μL per well. Fifty (50) μL of secondary antibody cocktail in LI-COR blocking solution (anti-rabbit_800 nm and anti-mouse_680 nm) was added to all wells (diluted 1:5000). The plates were incubated at room temperature for at least one hour while protected from light. The plates were washed twice with TBS-T, 200 μL per well.
To read each plate TBS-T was removed, and each plate was inverted tapped on a paper towel. The plates were read on the LI-COR Odyssey with default intensity settings of 5.0 for both channels. LI-COR images were analyzed with the in-cell Western feature of Image Studio Lite.

[1] = Table 2D, read-out: **Dmax (%) (% degraded)

T1 sequence (P51531 whole entry): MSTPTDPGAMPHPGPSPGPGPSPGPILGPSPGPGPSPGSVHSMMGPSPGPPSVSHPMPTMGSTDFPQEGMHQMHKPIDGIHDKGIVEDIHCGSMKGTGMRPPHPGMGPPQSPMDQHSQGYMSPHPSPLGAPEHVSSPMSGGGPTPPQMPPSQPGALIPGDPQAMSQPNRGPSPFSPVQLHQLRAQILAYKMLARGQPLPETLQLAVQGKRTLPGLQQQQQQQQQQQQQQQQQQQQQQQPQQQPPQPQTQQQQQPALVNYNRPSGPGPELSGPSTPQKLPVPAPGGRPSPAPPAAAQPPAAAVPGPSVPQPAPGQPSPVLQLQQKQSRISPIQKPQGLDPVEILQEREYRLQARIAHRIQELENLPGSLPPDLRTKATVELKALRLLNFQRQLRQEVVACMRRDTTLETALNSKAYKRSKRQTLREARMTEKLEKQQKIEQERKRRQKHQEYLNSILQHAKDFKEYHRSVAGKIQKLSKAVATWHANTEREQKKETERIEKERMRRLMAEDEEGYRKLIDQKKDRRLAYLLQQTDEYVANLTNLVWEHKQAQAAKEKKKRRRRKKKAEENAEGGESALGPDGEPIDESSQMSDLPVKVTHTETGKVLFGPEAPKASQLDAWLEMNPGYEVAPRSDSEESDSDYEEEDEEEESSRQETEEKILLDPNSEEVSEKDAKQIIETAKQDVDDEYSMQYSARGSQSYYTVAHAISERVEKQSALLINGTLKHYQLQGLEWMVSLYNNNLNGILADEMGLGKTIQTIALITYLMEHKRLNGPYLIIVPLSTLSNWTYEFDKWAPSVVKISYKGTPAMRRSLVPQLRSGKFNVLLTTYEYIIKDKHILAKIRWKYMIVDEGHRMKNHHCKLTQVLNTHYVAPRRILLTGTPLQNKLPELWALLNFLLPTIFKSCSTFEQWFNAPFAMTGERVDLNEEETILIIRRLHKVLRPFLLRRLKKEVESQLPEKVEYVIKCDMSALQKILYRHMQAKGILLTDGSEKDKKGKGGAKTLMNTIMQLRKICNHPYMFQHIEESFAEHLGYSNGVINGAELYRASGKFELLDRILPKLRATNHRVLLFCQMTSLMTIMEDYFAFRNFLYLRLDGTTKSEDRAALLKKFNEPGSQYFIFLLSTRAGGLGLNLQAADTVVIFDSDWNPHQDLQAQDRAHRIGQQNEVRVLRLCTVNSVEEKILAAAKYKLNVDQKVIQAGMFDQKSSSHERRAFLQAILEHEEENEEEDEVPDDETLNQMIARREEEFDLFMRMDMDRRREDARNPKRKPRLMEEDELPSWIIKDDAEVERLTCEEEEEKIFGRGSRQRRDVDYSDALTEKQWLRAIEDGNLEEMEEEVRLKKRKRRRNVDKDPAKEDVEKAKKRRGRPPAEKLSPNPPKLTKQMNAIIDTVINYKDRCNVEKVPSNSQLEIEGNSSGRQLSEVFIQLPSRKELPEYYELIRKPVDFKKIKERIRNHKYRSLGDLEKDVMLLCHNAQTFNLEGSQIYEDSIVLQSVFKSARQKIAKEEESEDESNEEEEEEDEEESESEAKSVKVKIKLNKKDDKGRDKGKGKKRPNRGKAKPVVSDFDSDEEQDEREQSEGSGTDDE

| SMILES | Dmax [1] [%] | DC50 (Table 2D, read-out: *DC50) [nM] | DC50 (read-out: DC50) [nM] | Dmax (read-out: Dmax (% degraded)) [%] |
| --- | --- | --- | --- | --- |
| Cc1ncsc1-c1ccc([C@H](C)NC(=O)[C@@H]2C[C@@H](O)CN2C(=O)[C@@H](c2cc(OCC[C@H]3CCN(C[C@H]4C[C@H](Oc5cc(N6C7CCC6CN(c6cc(-c8ccccc8O)nnc6N)C7)ccn5)C4)C[C@@H]3C)no2)C(C)C)cc1 (racemic) [compound 577, (2S,4R)-1-((2R)-2-(3-(2-((3R,4R)-1-(((1r,3R)-3-((4-(3-(3-amino-6-(2-hydroxyphenyl)pyridazin-4-yl)-3,8-diazabicyclo[3.2.1]octan-8-yl)pyridin-2-yl)oxy)cyclobutyl)methyl)-3-methylpiperidin-4-yl)ethoxy)isoxazol-5-yl)-3-methylbutanoyl)-4-hydroxy-N-((S)-1-(4-(4-methylthiazol-5-yl)phenyl)ethyl)pyrrolidine-2-carboxamide] | > 75 | < 2.5 |  |  |
| Cc1ncsc1-c1ccc([C@H](C)NC(=O)[C@@H]2C[C@@H](O)CN2C(=O)[C@H](c2cc(OCC[C@H]3CCN(C[C@H]4C[C@H](Oc5cc(N6C7CCC6CN(c6cc(-c8ccccc8O)nnc6N)C7)ccn5)C4)C[C@@H]3C)no2)C(C)C)cc1 (racemic) [compound 578, (2S,4R)-1-((2S)-2-(3-(2-((3R,4R)-1-(((1r,3R)-3-((4-(3-(3-amino-6-(2-hydroxyphenyl)pyridazin-4-yl)-3,8-diazabicyclo[3.2.1]octan-8-yl)pyridin-2-yl)oxy)cyclobutyl)methyl)-3-methylpiperidin-4-yl)ethoxy)isoxazol-5-yl)-3-methylbutanoyl)-4-hydroxy-N-((S)-1-(4-(4-methylthiazol-5-yl)phenyl)ethyl)pyrrolidine-2-carboxamide] | > 75 | < 2.5 |  |  |
| Cc1ncsc1-c1ccc([C@H](C)NC(=O)[C@@H]2C[C@@H](O)CN2C(=O)[C@H](c2cc(OCC[C@@H]3CCN(C[C@H]4C[C@H](Oc5cc(N6C7CCC6CN(c6cc(-c8ccccc8O)nnc6N)C7)ccn5)C4)[C@H](C)C3)no2)C(C)C)cc1 (racemic) [compound 579, (2S,4R)-1-((2S)-2-(3-(2-((2R,4R)-1-(((1r,3R)-3-((4-(3-(3-amino-6-(2-hydroxyphenyl)pyridazin-4-yl)-3,8-diazabicyclo[3.2.1]octan-8-yl)pyridin-2-yl)oxy)cyclobutyl)methyl)-2-methylpiperidin-4-yl)ethoxy)isoxazol-5-yl)-3-methylbutanoyl)-4-hydroxy-N-((S)-1-(4-(4-methylthiazol-5-yl)phenyl)ethyl)pyrrolidine-2-carboxamide] | > 75 | < 2.5 |  |  |
| Cc1ncsc1-c1ccc([C@H](C)NC(=O)[C@@H]2C[C@@H](O)CN2C(=O)[C@@H](c2cc(OCC[C@@H]3CCN(C[C@H]4C[C@H](Oc5cc(N6C7CCC6CN(c6cc(-c8ccccc8O)nnc6N)C7)ccn5)C4)[C@H](C)C3)no2)C(C)C)cc1 (racemic) [compound 580, (2S,4R)-1-((2R)-2-(3-(2-((2R,4R)-1-(((1r,3R)-3-((4-(3-(3-amino-6-(2-hydroxyphenyl)pyridazin-4-yl)-3,8-diazabicyclo[3.2.1]octan-8-yl)pyridin-2-yl)oxy)cyclobutyl)methyl)-2-methylpiperidin-4-yl)ethoxy)isoxazol-5-yl)-3-methylbutanoyl)-4-hydroxy-N-((S)-1-(4-(4-methylthiazol-5-yl)phenyl)ethyl)pyrrolidine-2-carboxamide] | > 75 | < 2.5 |  |  |
| Cc1ncsc1-c1ccc([C@H](C)NC(=O)[C@@H]2C[C@@H](O)CN2C(=O)[C@H](c2cc(OCC[C@@H]3CCN(C[C@H]4C[C@H](Oc5cc(N6C7CCC6CN(c6cc(-c8ccccc8O)nnc6N)C7)ccn5)C4)[C@@H](C)C3)no2)C(C)C)cc1 (racemic) [compound 581, (2S,4R)-1-((2S)-2-(3-(2-((2S,4R)-1-(((1r,3S)-3-((4-(3-(3-amino-6-(2-hydroxyphenyl)pyridazin-4-yl)-3,8-diazabicyclo[3.2.1]octan-8-yl)pyridin-2-yl)oxy)cyclobutyl)methyl)-2-methylpiperidin-4-yl)ethoxy)isoxazol-5-yl)-3-methylbutanoyl)-4-hydroxy-N-((S)-1-(4-(4-methylthiazol-5-yl)phenyl)ethyl)pyrrolidine-2-carboxamide] | > 75 | < 2.5 |  |  |
| Cc1ncsc1-c1ccc([C@H](C)NC(=O)[C@@H]2C[C@@H](O)CN2C(=O)[C@@H](c2cc(OCC[C@@H]3CCN(C[C@H]4C[C@H](Oc5cc(N6C7CCC6CN(c6cc(-c8ccccc8O)nnc6N)C7)ccn5)C4)[C@@H](C)C3)no2)C(C)C)cc1 (racemic) [compound 582, (2S,4R)-1-((2R)-2-(3-(2-((2S,4R)-1-(((1r,3S)-3-((4-(3-(3-amino-6-(2-hydroxyphenyl)pyridazin-4-yl)-3,8-diazabicyclo[3.2.1]octan-8-yl)pyridin-2-yl)oxy)cyclobutyl)methyl)-2-methylpiperidin-4-yl)ethoxy)isoxazol-5-yl)-3-methylbutanoyl)-4-hydroxy-N-((S)-1-(4-(4-methylthiazol-5-yl)phenyl)ethyl)pyrrolidine-2-carboxamide] | > 75 | < 2.5 |  |  |
| Cc1ncsc1-c1ccc([C@H](C)NC(=O)[C@@H]2C[C@@H](O)CN2C(=O)C(c2cc(OCCN3[C@H](C)C[C@H](O[C@H]4C[C@H](Oc5cc(N6C7CCC6CN(c6cc(-c8ccccc8O)nnc6N)C7)ccn5)C4)C[C@@H]3C)no2)C(C)C)cc1 (mixture of isomers) [compound 635, (2S,4R)-1-(2-(3-(2-((2S,4S,6R)-4-((1r,3R)-3-((4-(3-(3-amino-6-(2-hydroxyphenyl)pyridazin-4-yl)-3,8-diazabicyclo[3.2.1]octan-8-yl)pyridin-2-yl)oxy)cyclobutoxy)-2,6-dimethylpiperidin-1-yl)ethoxy)isoxazol-5-yl)-3-methylbutanoyl)-4-hydroxy-N-((S)-1-(4-(4-methylthiazol-5-yl)phenyl)ethyl)pyrrolidine-2-carboxamide] |  |  | < 2.5 | > 75 |
| Cc1ncsc1-c1ccc([C@H](C)NC(=O)[C@@H]2C[C@@H](O)CN2C(=O)[C@@H](c2cc(N3CCC(CN4CCC([C@H](C)n5cc(-c6cc(-c7ccccc7O)nnc6N)cn5)CC4)CC3)no2)C(C)C)cc1 (single isomer, unassigned) [compound 573] | > 75 | < 2.5 |  |  |
| Cc1ncsc1-c1ccc([C@H](C)NC(=O)[C@@H]2C[C@@H](O)CN2C(=O)[C@@H](c2cc(N3CCC(CN4CCC([C@@H](C)n5cc(-c6cc(-c7ccccc7O)nnc6N)cn5)CC4)CC3)no2)C(C)C)cc1 (single isomer, unassigned) [compound 574] | > 75 | < 2.5 |  |  |
| Cc1ncsc1-c1ccc([C@H](C)NC(=O)[C@@H]2C[C@@H](O)CN2C(=O)[C@H](c2cc(OCC[C@@H]3CCN(C[C@H]4C[C@H](Oc5cc(N6C7CCC6CN(c6cc(-c8ccccc8O)nnc6N)C7)ccn5)C4)[C@H](C)[C@@H]3C)no2)C(C)C)cc1 (single isomer, unassigned) [compound 583] |  | > 30 |  |  |
| Cc1ncsc1-c1ccc([C@H](C)NC(=O)[C@@H]2C[C@@H](O)CN2C(=O)[C@@H](c2cc(OCC[C@@H]3CCN(C[C@H]4C[C@H](Oc5cc(N6C7CCC6CN(c6cc(-c8ccccc8O)nnc6N)C7)ccn5)C4)[C@H](C)[C@@H]3C)no2)C(C)C)cc1 (single isomer, unassigned) [compound 584] | > 75 | < 2.5 |  |  |
| Cc1ncsc1-c1ccc([C@H](C)NC(=O)[C@@H]2C[C@@H](O)CN2C(=O)[C@H](c2cc(OCC[C@H]3CCN(C[C@H]4C[C@H](Oc5cc(N6C7CCC6CN(c6cc(-c8ccccc8O)nnc6N)C7)ccn5)C4)[C@@H](C)[C@H]3C)no2)C(C)C)cc1 (single isomer, unassigned) [compound 585] | > 75 | 2.5 to 10 |  |  |
| Cc1ncsc1-c1ccc([C@H](C)NC(=O)[C@@H]2C[C@@H](O)CN2C(=O)[C@@H](c2cc(OCC[C@H]3CCN(C[C@H]4C[C@H](Oc5cc(N6C7CCC6CN(c6cc(-c8ccccc8O)nnc6N)C7)ccn5)C4)[C@@H](C)[C@H]3C)no2)C(C)C)cc1 (single isomer, unassigned) [compound 586] | > 75 | < 2.5 |  |  |
| Cc1ncsc1-c1ccc([C@H](C)NC(=O)[C@@H]2C[C@@H](O)CN2C(=O)[C@H](c2cc(N3CCC(OC4CCN(CC5CC(CN6CCC([C@H](C)n7cc(-c8cc(-c9ccccc9O)nnc8N)cn7)CC6)C5)CC4)CC3)no2)C(C)C)cc1 (single isomer, unassigned) [compound 593] | > 75 | < 2.5 |  |  |
| Cc1ncsc1-c1ccc([C@H](C)NC(=O)[C@@H]2C[C@@H](O)CN2C(=O)[C@@H](c2cc(N3CCC(OC4CCN(CC5CC(CN6CCC([C@H](C)n7cc(-c8cc(-c9ccccc9O)nnc8N)cn7)CC6)C5)CC4)CC3)no2)C(C)C)cc1 (single isomer, unassigned) [compound 594] | > 75 | < 2.5 |  |  |
